Measurements reported in patent US20260207670A1, “STABILIZED BLOOD DERIVED COMPOSITION USING ANTIFIBRINOLYTIC AGENTS” (priority 2022, published 2026).

How the values were obtained:
SOX9 gene = assay: RT-PCR of SOX9 gene expression in the rabbit osteoarthritis model; assay type: in vivo; details: p=0.36 (TXA)
Excerpt: (§1) The measurement of the expression of the genes responsible for the cell differentiation is found to be important in assessing the potential regenerative of the therapy tested. The process of tissue repair involves the overexpression of the genes that are involved in the form of messenger RNA (mRNA) which will be essential for synthesis of proteins necessary for wound healing and differentiation. Therefore, quantification of the mRNA of such a gene will reflect the efficiency and the intensity of tissue repair. Based on this principle, in the rabbit osteoarthritis model of Example 3, RT-PCR was carried out in order to quantify two genes that are correlated to repair and differentiation hyaline cartilage: the COL II gene coding for the synthesis of collagen II; and the SOX9 gene coding for the differentiation mechanisms chondrocyte.

[1] = system: rabbit model of osteoarthritis; assay: Arthrosis rabbit model: radiological, macroscopic and histological scores; assay type: in vivo
Protocol: Rabbits showing characteristic signs of osteoarthritis (as described in Guingamp et al., 1997; confirmed with the sacrifice of two rabbits on day 15 after induction of osteoarthritis and histology), were injected with a treatment solution as described below. The rabbits were sacrificed after 75 days and radiological observation, macroscopic observation, histological observation of the cartilage, histological observation of the synovium, histological observation of the menisci were carried out.
The rabbits were treated with either: • 1. PRP alone; or • 2. […] Physiological serum (saline solution, a placebo)
The limbs were examined radiologically by two orthogonal views (anteroposterior and medio-lateral) performed using a SAMSUNG XGO® model GU60 digital radiography system (Samsung® Electronics Co, Ltd; Korè) according to radiological constants following: Voltage: 52 kV; Intensity: 100 mA; and Load: 5 mAs. The radiographs were examined blindly by two observers. The degenerative changes are similar between the two subgroups of group control (physiological serum and TXA alone). […] This is explained by the fact that tranexamic acid prevents the destruction of the fibrin network within the joint space and allows a prolonged biological action.

COL II gene = assay: RT-PCR of COL II gene expression in the rabbit osteoarthritis model; assay type: in vivo; details: p=0.12 (TXA), p=3.9*10-8 (PRP alone), p=2.1*10-6 (PRP+TXA)
Excerpt: as §1

PRP fibrin clot = assay: Speed of PRP fibrin clot disintegration (PRP gel disc diameter)

NC[C@H]1CC[C@H](C(=O)O)CC1 [TXA, tranexamic acid]
expression of SOX9 gene (RQ) compared to placebo (SOX9 gene): No significant difference
synovial score (osteoarthritic synoviopathy) compared to placebo ([1]; after 75 days, p=0.58 (TXA)): no statistically significant differences
meniscal histological score compared to placebo ([1]; after 75 days, p=0.6 (TXA), p=0.07 (PRP alone), p=2.2*10-6 (PRP+TXA)): no statistically significant differences
radiological score compared with physiological serum ([1]; rabbits sacrificed after 75 days, p=0.092 (PRP alone)): similar
expression of COLII (RQ) compared to placebo (COL II gene): No significant difference
effect on PRP gel disc breakdown, 20 mg/mL compared with 10 mg/mL (PRP fibrin clot; 20 mg/mL tranexamic acid vs 10 mg/mL (Example 1)): even more beneficial effect
rate of PRP gel disc breakdown (PRP fibrin clot; PRP gel discs with TXA 10 or 20 mg/ml vs pure PRP gel, diameter measured weekly over 21 days, physiological conditions): significantly reduced
